Data reported in ChEMBL document CHEMBL4811280, “Discovery of a simplified deguelin analog as an HSP90 C-terminal inhibitor for HER2-positive breast cancer” (Bioorg Med Chem Lett, 2021).

What was measured:
Heat shock protein HSP90 [1] = target: T1, Heat shock protein HSP90 (Homo sapiens, UniProt P07900+P08238); assay: Inhibition of HSP90 at C-terminus in trastuzumab-resistant human […] cells assessed as downregulation of cyclinD1 protein expression incubated for 72 hrs by Western blot analysis; assay type: cell-based; details: JIMT-1, dose 2-10 µM
JIMT-1 [2] = assay: Antiproliferative activity against trastuzumab-resistant HER2-positive human JIMT-1 cells assessed as cell viability at 10 uM after 72 hrs by MTS assay; assay type: functional; details: read-out: Activity
Heat shock protein HSP90 [3] = target: T1, Heat shock protein HSP90; assay: Inhibition of HSP90 at C-terminus in trastuzumab-sensitive human BT-474 cells assessed as downregulation of cyclinD1 protein expression incubated for 72 hrs by Western blot analysis; assay type: cell-based; details: dose 2-10 µM
Heat shock protein HSP90 [4] = target: T1, Heat shock protein HSP90; assay: Inhibition of HSP90 at C-terminus in trastuzumab-sensitive human BT-474 cells assessed as downregulation of survivin protein expression incubated for 72 hrs by Western blot analysis; assay type: cell-based; details: dose 2-10 µM
SK-BR-3 = assay: Antiproliferative activity against trastuzumab-sensitive human SK-BR-3 cells assessed as reduction in cell viability after 72 hrs by MTS assay; assay type: functional, cell-based; details: dose 0.1-20 µM
BT-474 [5] = assay: Antiproliferative activity against trastuzumab-sensitive HER2-positive human BT-474 cells assessed as cell viability at 10 uM after 72 hrs by MTS assay; assay type: functional; details: read-out: Activity
HEK293 = assay: Cytotoxicity against human HEK293 cells assessed as reduction in cell viability at 10 uM after 72 hrs by MTS assay; assay type: cell-based; details: hek293, 72 h
Heat shock protein HSP90 [6] = target: T1, Heat shock protein HSP90; assay: Inhibition of HSP90 at N-terminus in human BT-474 cells assessed as increase in cytosolic HSP90 protein level at 10 uM incubated for 24 hrs by immunostaining analysis; assay type: cell-based; details: bt-474, 24 h
Heat shock protein HSP90 [7] = target: T1, Heat shock protein HSP90; assay: Inhibition of HSP90 at C-terminus in trastuzumab-resistant human […] cells assessed as downregulation of survivin protein expression incubated for 72 hrs by Western blot analysis; assay type: cell-based; details: JIMT-1, dose 2-10 µM
BT-474 [8] = assay: Antiproliferative activity against trastuzumab-sensitive HER2-positive human BT-474 cells assessed as reduction in cell viability after 72 hrs by MTS assay; assay type: functional, cell-based; details: dose 0.1-20 µM
Heat shock protein HSP90 [9] = target: T1, Heat shock protein HSP90; assay: Inhibition of HSP90 at C-terminus in trastuzumab-resistant human […] cells assessed as downregulation of HER2 protein expression incubated for 72 hrs by Western blot analysis; assay type: cell-based; details: JIMT-1, dose 2-10 µM
Heat shock protein HSP90 [10] = target: T1, Heat shock protein HSP90; assay: Inhibition of HSP90 at C-terminus in trastuzumab-sensitive human BT-474 cells assessed as downregulation of HER2 protein expression incubated for 72 hrs by Western blot analysis; assay type: cell-based; details: dose 2-10 µM
Heat shock protein HSP90 [11] = target: T1, Heat shock protein HSP90; assay: Inhibition of HSP90 at C-terminus in trastuzumab-resistant human […] cells assessed as downregulation of Akt protein expression incubated for 72 hrs by Western blot analysis; assay type: cell-based; details: JIMT-1, dose 2-10 µM
Heat shock protein HSP90 [12] = target: T1, Heat shock protein HSP90; assay: Inhibition of HSP90 at C-terminus in trastuzumab-sensitive human BT-474 cells assessed as downregulation of Akt protein expression incubated for 72 hrs by Western blot analysis; assay type: cell-based; details: dose 2-10 µM
Heat shock protein HSP90 [13] = target: T1, Heat shock protein HSP90; assay: Inhibition of HSP90 at N-terminus in human BT-474 cells assessed as increase in nuclear HSF1 protein level at 10 uM incubated for 24 hrs by immunostaining analysis; assay type: cell-based; details: bt-474, 24 h
MDA-MB-453 = assay: Antiproliferative activity against trastuzumab-resistant human MDA-MB-453 cells assessed as reduction in cell viability after 72 hrs by MTS assay; assay type: functional, cell-based; details: dose 0.1-20 µM
JIMT-1 [14] = assay: Antiproliferative activity against trastuzumab-resistant HER2-positive human JIMT-1 cells assessed as reduction in cell viability after 72 hrs by MTS assay; assay type: functional, cell-based; details: dose 0.1-20 µM

## COc1cc2c(C(OC(=O)C3CC3)c3ccc4c(c3OC)C=CC(C)(C)O4)ccnc2cc1OCCCN1CCN(C)CC1 (configuration not stated)
Heat shock protein HSP90 [1]
  inhibition: Dose-Dependent Effect
JIMT-1 [2]
  viability at 10 µM: < 20%
Heat shock protein HSP90 [3]
  inhibition: Dose-Dependent Effect
Heat shock protein HSP90 [4]
  inhibition: Dose-Dependent Effect
SK-BR-3
  Activity: Dose-Dependent Effect
BT-474 [5]
  viability at 10 µM: < 20%
HEK293
  Activity: Toxic
Heat shock protein HSP90 [6]
  inhibition (INH): Not Active
Heat shock protein HSP90 [7]
  inhibition: Dose-Dependent Effect
BT-474 [8]
  Activity: Dose-Dependent Effect
Heat shock protein HSP90 [9]
  inhibition: Dose-Dependent Effect
Heat shock protein HSP90 [10]
  inhibition: Dose-Dependent Effect
Heat shock protein HSP90 [11]
  inhibition: Dose-Dependent Effect
Heat shock protein HSP90 [12]
  inhibition: Dose-Dependent Effect
Heat shock protein HSP90 [13]
  inhibition (INH): Not Active
MDA-MB-453
  Activity: Dose-Dependent Effect
JIMT-1 [14]
  Activity: Dose-Dependent Effect
